Results published in US9056923B2, “Mimetic peptides derived from collagen type IV and their use for treating angiogenesis- and lymphagiogenesis-dependent diseases” (THE JOHNS HOPKINS UNIVERSITY, priority 2010, dated 2015).
Ends that are not written are not given here.

System: choroidal neovascularization
Assay: Laser-induced choroidal neovascularization model
Assay type: in vivo, C57BL/6 mice
Conditions: 0.01, 0.1, or 1 μg into the mouse eye
Method: The ocular laser-induced choroidal neovascularization (NV) model of wet age-related macular degeneration was used for testing. 5-6-week-old female pathogen-free C57BL/6 mice were anesthetized with ketamine hydrochloride (100 mg/kg body weight) and pupils were dilated. Laser photocoagulation (75-μm spot size, 0.1-sec duration, 120 mW) was performed in the 9, 12, and 3 o'clock positions of the posterior pole of each eye with the slit lamp delivery system of an OcuLight GL diode laser (Iridex, Mountain View, Calif.) and a handheld cover slip as a contact lens to view the retina. Production of a tissue bubble by the laser, which indicates rupture of Bruch's membrane, is an important factor in obtaining choroidal NV; therefore, only burns in which a bubble is produced are included in the study. […] At day 7 the mice that received the naked peptides were dosed again whereas the mice that received the particles were administered PBS. Intravitreous injections were done under a dissecting microscope with a Harvard Pump Microinjection System and pulled glass micropipettes. After 14 days, the mice were perfused with 1 mL of PBS containing 50 mg/mL of fluorescein-labeled dextran (2×10^6 Daltons average molecular weight; Sigma-Aldrich, St. Louis, Mo.) and choroidal flat mounts were examined by fluorescence microscopy. Images were captured with a Nikon Digital Still Camera DXM1200 (Nikon Instruments Inc., New York, N.Y.). Image analysis software (Image-Pro Plus; Media Cybernetics, Silver Spring, Md.) was used to measure the total area of choroidal NV at each rupture site with the investigator masked with respect to treatment group.

Substance: LRRFSTMPFMFININNVINF-NH2 [SP2024]
- area of choroidal neovascularization: generally decreased
